The results in this text go back to US20220296583A1, “COMPOSITIONS AND METHODS FOR TREATMENT OF OVARIAN AND BREAST CANCER” (Board of Regents, The University of Texas System, priority 2021, published 2022).

Test [1] concerns HDAC4 (Ser246)/HDAC5 (Ser256)/HDAC7 (Ser155). In words: Western analysis of HDAC4/5/7 phosphorylation. The following applies: 4 μM, 24 hrs; nearly all the cell lines tested. It is filed as cell-based. The method, then:
To identify the mechanism(s) by which SIK2 inhibition decreases DNA DBS repair, it was tested whether SIK2 inhibitors decrease the phosphorylation of class IIa HDACs, which control its nuclear cytoplasmic shuttling and consequently its association with DNA. […] Next, it was investigated whether SIK2 inhibitors increase nuclear localization of HDAC5. SIK2 inhibition increased nuclear localization of HDAC5 judged by increasing nuclear florescence intensity (FIG. 7B and FIG. 8A) and the nuclear fraction of HDAC5 expression (FIG. 8B). […] Therefore, it was hypothesized that SIK2 inhibition may block MEF transcription factor activity. […] Next, it was examined whether SIK2 regulation of MEF2 activity was HDAC4/5-dependent, increasing its binding to MEF2D protein. […] These observations are consistent with the hypothesis that SIK2 inhibition increases nuclear localization of HDAC4/5, blocking MEF2 transcription (FIG. 8E).
Cells were incubated with and without treatment for the intervals indicated and then cells were incubated in lysis buffer (50 mM Hepes, pH 7.0, 150 mM NaCl, 1.5 mM MgCl2, 1 mM EGTA, 10, 10% glycerol, 1% Triton X-100, 50 mM NaF, 1 mM Na3VO4 1 mM PMSF, 10 μg/mL leupeptin and10 μg/mL aprotinin) on ice for 30 min. […] The protein concentration was assessed using a bicinchoninic acid (BCA) protein assay (Thermo Scientific, 23228). […]

In test [2] the test system is OVCAR8, SKOv3, and OC316 ovarian cancer cell lines. The test is described as follows: Annexin V/PI apoptosis, Compound B and carboplatin. It counts as cell-based. The following applies: 72 h; flow cytometry. The protocol:
Cells were dislodged and stained with Annexin V antibody and PI dye for flow cytometry. Representative images are shown on the left and the analysis of apoptotic population under different treatment conditions are on the right. (B) Effect of SIK2 knockout on carboplatin-induced apoptosis. SIK2 knockout (KO) and control cell lines were treated as in (A) and analyzed for apoptosis. The bars indicate the mean percentage of apoptotic cells with standard deviations.
After completion of incubation, cells were harvested and washed with PBS two times. After washing, cells were re-suspended in 100 μL Annexin-binding buffer containing propidium iodide (PI) and FITC Annexin-V (Invitrogen) and incubated at ambient temperature for 15 min in the dark. After incubation, 200 μL of Annexin-binding buffer was added and stained cells were analyzed using a Beckman Coulter's Gallios Flow Cytometer.
Many current cancer chemotherapies, including platinum-based drugs, exert their antitumor effect by triggering apoptosis in cancer cells. […] The inhibitor of apoptosis protein family (IAPs) includes an important group of proteins involved in the regulation of apoptosis. One member of this protein family, survivin, plays an important role in promoting tumor progression by deregulating apoptosis and cell division.
A general note: Flow cytometry measures light scatter and fluorescence of single cells or particles in a stream.

As to `COc1c(F)cc(F)cc1-c1c[nH]c2ncc(-c3cnn(C4CCN(S(C)(=O)=O)CC4)c3)cc12` [Compound B, 3-(3,5-difluoro-2-methoxyphenyl)-5-(1-(1-(methylsulfonyl)piperidin-4-yl)-1H-pyrazol-4-yl)-1H-pyrrolo[2,3-b]pyridine], in test [1], the “phosphorylation of HDAC4/HDAC5/HDAC7” value is reported as “significantly decreased”. Moreover, the apoptosis entry in test [2] is on record as “induced apoptosis as a single agent, but also enhanced carboplatin-induced apoptosis”.
